Source: patent US20140123342A1, “Regulation of Stomatal Apertures by Apyrases and Extracellular Nucleotides” (BOARD OF REGENTS, THE UNIVERSITY OF TEXAS SYSTEM, priority 2011, published 2014)

Key:
Format in all cases: cell-based, Arabidopsis thaliana
[1] = system: stomata (guard cells) in epidermal peels; assay: Stomatal aperture closure studies, epidermal peels in the light; conditions: 10 μM, epidermal peels, light, 1 h
Description: (§1) Stomatal Aperture Studies: Arabidopsis thaliana ecotypes Columbia (Col-0) and Wassilewskija (WS) were used as wild types in this study. Col-0, nia1nia2, atrbohD/F, R2-4A and WS plants were all grown on autoclaved Metro-Mix 200 soil at 22° C. under continuous light. The mutant seeds nia1nia2 nia2-5; CS 2356; Col-0 background) were obtained from Dr. N. M. Crawford (University of California at San Diego) and the mutant seeds atrbohD/F (Col-0 background) were obtained from Dr. J. M. Kwak (University of Maryland). The RNAi mutant apyrase line (R2-4A) is in WS background, so WS ecotype was used as the control wild type for these studies. Leaves from 2 to 3 week old Col-0 plants, or R2-4A and WS plants treated with 4 μM estradiol for 1 week after development of mature basal leaves were used for peel and whole leaf studies. Plants were placed in the dark and watered 24 h before an study. For opening studies, plants were used immediately after 24 h dark treatment and all treatments were done in the dark except for the light treated leaves or peels, thus the control stomata are dark controls. For closure studies, plants were placed in the light 3 h before an study to induce stomatal opening and all treatments were done in the light, thus the control stomata are light controls. For peel studies, epidermal peels were made from the underside of the leaf and treatments were applied to the peels for 1 h. For whole leaf studies, leaves were removed and treatments were applied for 2 h. For each treatment, about 3 or 4 peels collected from different leaves or 3 or 4 different leaves of at least two different plants were floated with the abaxial side up in petri dishes on 3 mL of Arabidopsis leaf buffer consisting of 10 mM KCl, 25 mM MES pH 6.15 (Melotto et al., 2006) and the chemical being tested. For whole leaf studies peels were collected after the treatment.
(§2) For studies testing the effects of ATPγS, ADPγS, AMPS, RB2, and PPADS (Sigma, St. Louis, Mo., USA) 20 mM stocks were made by dissolving the compounds in de-ionized water. For studies testing the effects of apyrase inhibitors, 7.5 mg/mL of NGXT191 and of inhibitor #13 (Windsor et al., 2002) was dissolved in dimethyl sulfoxide (DMSO) and then applied at a dilution of […] for a final concentration of 0.1% DMSO. ABA (Sigma, St. Louis, Mo., USA) was dissolved in ethanol in 10 mM stocks and then applied at a dilution of 1:1000. The stocks were stored at −20° C. while not in use. The production of the anti-AtAPY1 antibodies used is described by Steinebrunner et al. (2003). The crude immune and pre-immune sera were purified using protein A-Sepharose following the protocol described by Martin (1982) with the slight modification that the buffers used were azide-free. The protein-A purified sera were both used at a 1:1000 dilution in leaf stomatal aperture studies. The concentration of the immune and pre-immune sera, determined by Bradford assay (Bio-Rad), was 10.2 μg/mL and 7.7 μg/mL, respectively.
(§3) After treatment, photos of stomata were taken using a light microscope at 20×. Stomatal aperture width was measured using the image processing software ImageJ. Typically, photos were taken of 70 to 90 stomata per treatment of which only 50 stomata were measured for each treatment. For each treatment the ratio of closed stomata (width of 0) to open stomata was determined for all stomata imaged and this ratio was maintained in the 50 stomata that were measured for each treatment. Data shown uses apertures determined as width/length, however data in all studies also obtained as width only and generally width/length and width only data are in agreement with each other. Statistical significance of the measurements for the treatments was determined using the Student's t test in Microsoft Excel.

[2] = system: stomata (guard cells) in whole leaves; assay: Stomatal aperture closure studies, whole leaves in the light; conditions: 10 μM, 2 h
Description: as §1, §2, §3

H2O2 in guard cells = assay: Detection and quantification of H2O2 (H2DCFDA fluorescence); conditions: 10 μM, leaf epidermal tissue, after 30 min
Description: (§4) Detection and Quantification of H2O2 and NO: Col-0 plants were grown on soil for 2 to 4 weeks under continuous light at 21° C. Plants were placed in the dark for 24 h to ensure closure and then transferred to the light for 1 h. After 1 h in the light, mature basal leaves were excised and blended in a Waring blender on the low setting for approximately 10 s to isolate epidermal tissues, and the tissues were placed in 3 mL of 30 mM KCl, 10 mM Mes-KOH, pH 6.16 buffer in light for 2 h (Pei et al., 2000; Murata et al., 2001). DAF-2 DA and H2DCFDA were dissolved in DMSO to produce 5 mM and 10 mM stock solutions, respectively, and these were stored at −20° C. in 30 μL, aliquots. Fifty μM H2DCFDA or 15 μM DAF-2 DA was added to the medium in the dark, and after 30 min, 10 μM ABA, 200 μM ATPγS, or buffer (ATP control) was also added to the medium in the dark for 30 min. Peels were then rinsed by decanting the treatment solution and adding 3 mL fresh leaf buffer to the peels. Peels were rinsed twice as described. A peel from each of the three treatments (ABA, ATPγS and buffer) were placed on the same microscope slide and observed sequentially. A second study was staggered 30 to 45 min after the first by loading the H2DCFDA or DAF-2 DA dye to new peels 30 to 45 min after the first round of dye was added. Confocal laser scanning microscopy (CLSM) was performed with a Leica SP2 AOBS confocal microscope (Leica Microsystems, Bannockburn, Ill., USA). Laser power was set at 15%, with an excitation of 488 nm and an emission of 525 nm. A series of 0.5 μm optical sections with average intensity projection along the z axis were collected and made into one 2D image with greater focal depth. All images were obtained with the same software scanning settings including detector gain and laser intensity settings.

NO in guard cells = assay: Detection and quantification of NO (DAF-2 DA fluorescence); conditions: 10 μM, leaf epidermal tissue, after 45 min
Description: as §4

[3] = system: stomata of atrbohD/F mutant leaves; assay: Stomatal closing studies with whole leaves of atrbohD/F mutant; conditions: 10 μM
Description: (§5) Stomatal Aperture Studies: Arabidopsis thaliana ecotypes Columbia (Col-0) and Wassilewskija (WS) were used as wild types in this study. Col-0, nia1nia2, atrbohD/F, R2-4A and WS plants were all grown on autoclaved Metro-Mix 200 soil at 22° C. under continuous light. The mutant seeds nia1nia2 nia2-5; CS 2356; Col-0 background) were obtained from Dr. N. M. Crawford (University of California at San Diego) and the mutant seeds atrbohD/F (Col-0 background) were obtained from Dr. J. M. Kwak (University of Maryland). The RNAi mutant apyrase line (R2-4A) is in WS background, so WS ecotype was used as the control wild type for these studies. […]
as §3, with “Statistical significance of the measurements for the treatments was determined using the Student's t test in Microsoft Excel.” left out

[4] = system: stomata of nia1nia2 mutant leaves; assay: Stomatal closing studies with whole leaves of nia1nia2 mutant; conditions: 10 μM
Description: as §5
as §3, with “Statistical significance of the measurements for the treatments was determined using the Student's t test in Microsoft Excel.” left out

CC1=CC(=O)CC(C)(C)[C@@]1(O)/C=C/C(C)=C\C(=O)O [ABA, abscisic acid]
effect on stomatal aperture [1]: induced stomatal closure
effect on stomatal aperture ([2]; both estradiol-treated WS wild-type and R2-4A plants): caused closure
effect on stomatal aperture ([2]; whole leaves, light): induced stomatal closure
increase in H2DCFDA fluorescence in guard cells (H2O2 in guard cells): 3 fold
increase in DAF-2 DA fluorescence in guard cells (NO in guard cells): 2.5 fold
effect on stomatal aperture [3]: no effect on stomatal aperture
effect on stomatal aperture [4]: no effect on stomatal aperture
